Legend:
PPARγ = target: T1, PPARγ (Homo sapiens, UniProt P37231); test: Test on PPARγ activation (GAL4-PPARγ-LBD luciferase reporter in IEC-6 cells); assay type: cell-based; details: control set at 100, test substance 500 μM, 24 hours
T1 construct: expressed in transfected cells; host or cells: IEC-6 small intestine epithelial cell line
T1 sequence (P37231 238-503 limits assumed): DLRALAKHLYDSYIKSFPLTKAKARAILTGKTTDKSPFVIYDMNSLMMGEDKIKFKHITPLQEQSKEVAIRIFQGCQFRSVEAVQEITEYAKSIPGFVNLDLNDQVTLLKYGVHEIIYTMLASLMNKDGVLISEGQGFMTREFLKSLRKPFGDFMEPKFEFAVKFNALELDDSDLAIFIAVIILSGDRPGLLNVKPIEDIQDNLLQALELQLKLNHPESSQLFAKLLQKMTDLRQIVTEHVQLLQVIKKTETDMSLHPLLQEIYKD
Method: The small intestine epithelial cell line IEC-6 was inoculated on a 12 well plate and cultured in DMEM (5% FCS) for 24 hours. A plasmid (pGAL4-PPARγ-LBD) expressing the chimeric molecules of a GAL4-DNA binding domain (DBD) and a PPARγ ligand binding domain (LBD) and a reporter plasmid (pREP) containing a GAL4 binding sequence upstream of a firefly luciferase gene were introduced simultaneously by using a transfection reagent (“QIAGEN”; Superfect transfection reagent), each in an amount of 0.5 μg/well. In order to monitor the transfection efficiency, a renilla luciferase gene was incorporated in the pGAL4-PPARγ-LBD at the same time. The culture broth was then replaced with a DMEM (+250 μM BSA) medium containing a test substance (500 μM), followed by incubation for further 24 hours. After washing with PBS, the cells were lysed using dual luciferase assay system (product of Promega Corporation). To the resulting lysate was added a substrate solution containing luciferin, and firefly and renilla luciferase activities were measured by a luminometer. In the above-described manner, the PPARγ activating capacity was evaluated by measuring the transcriptional activity (luciferase activity) of the PPARγ-dependent gene. It is to be noted that the PPARγ-dependent gene transcriptional activity (luciferase activity) was defined as described below. […]

[1] = Evaluation of rancid odor (organoleptic); assay type: physicochemical; design: key: A: The sample is almost free from a rancid odor and the odor does not cause discomfort.; B: The sample emits a little rancid odor, but the odor causes little discomfort.; C: The sample emits a rancid odor and the odor causes discomfort.; D: The sample emits a severe rancid odor and the odor causes extreme discomfort; details: oil or fat composition:water=70:30, room temperature for 1 week, smelled
Method: Each sample (each oil or fat composition:water=70:30) prepared in Example 3 was allowed to stand at room temperature for 1 week. The sample was smelled and organoleptic evaluation of rancid odor was performed based on the below-described criteria.

[2] = Evaluation of gelling properties; assay type: physicochemical; design: key: A: The mixture lacks fluidity and is gelled.; B: The mixture has low fluidity and is gelled slightly.; C: The mixture has fluidity and is partially gelled.; D: The mixture has fluidity and is not gelled at all; details: 70:30 (weight/weight) mixture of oil or fat composition and water, visually observed
Text: Gelling properties of a 70:30 (weight/weight) mixture of each oil or fat composition and water were visually observed and evaluated based on the below-described criteria. The results are shown in Table 1. • A: The mixture lacks fluidity and is gelled. • B: The mixture has low fluidity and is gelled slightly. • C: The mixture has fluidity and is partially gelled. • D: The mixture has fluidity and is not gelled at all.

SMILES	PPARγ (PPARγ-dependent transcriptional activity, luciferase, relative to control) (PPARγ)	Rancid odor [1]	Gelling properties [2]
CC/C=C\C/C=C\C/C=C\C/C=C\C/C=C\CCCC(=O)O [Oil or Fat Composition 7, Eicosapentaenoic acid]	480	D	D
CC/C=C\C/C=C\C/C=C\C/C=C\C/C=C\C/C=C\CCC(=O)O [Oil or Fat Composition 8, Docosahexaenoic acid]	508	D	D
